Drawing on patent US7923450B2, “Modulators for amyloid beta” (Hoffmann-La Roche Inc., priority 2008, dated 2011), this text covers EC50 and melting point for 28 molecules.

The test system of the first data set is γ-secretase. The data set is described as follows: Cellular γ-secretase assay (Aβ42 secretion). It is filed as cell-based. The settings on record: inhibition of Aβ42 secretion; human neuroglioma H4 cells overexpressing human APP; 22 hrs incubation; read-out: EC50 in vitro. The method, then:
Cellular γ-Secretase Assay
Human neuroglioma H4 cells overexpressing human APP were plated at 30,000 cells/well/200 μl in 96-well plates in IMDM media containing 10% FCS, 0.2 mg/l Hygromycin B and incubated for 2 h at 37° C., 5% CO2 prior to adding test compounds.
Compounds for testing were dissolved in 100% Me2SO yielding in a 10 mM stock solution. Typically 12 μl of these solutions were further diluted in 1000 μl of IMDM media (w/o FCS,). Sub sequential 1:1 dilutions gave a ten point dose response curve. 100 μl of each dilution was added to the cells in 96-well plates. Appropriate controls using vehicle only and reference compound were applied to this assay. The final concentration of Me2SO was 0.4%.
After incubation for 22 hrs at 37° C., 5% CO2, 50 μl supernatant was transferred into round-bottom 96-well polypropylene plates for detection of Aβ42. 50 μl assay buffer (50 mM Tris/Cl, pH 7.4, 60 mM NaCl, 0.5% BSA, 1% TWEEN 20) was added to the wells followed by the addition of 100 μl of detection antibody (ruthenylated Aβ42-specific antibody BAP15 0.0625 μg/mL in assay buffer). 50 μl of a premix of capture antibody (biotinylated 6E10 antibody, 1 μg/mL) and Steptavidin-coated magnetic beads (Dynal M-280, 0.125 mg/mL) were preincubated for 1 hr at room temperature before adding the assay plates. Assay plates were incubated on a shaker for 3 hrs at room temperature and finally read in the Bioveris M8 Analyser according to the manufacturer's instructions (Bioveris).
EC50 values for inhibition of Aβ42 secretion were calculated by nonlinear regression fit analysis using XLfit 4.0 software (IDBS).
On to `COc1cc(Nc2nc3c(s2)CCCC3c2ccccc2)ccc1-c1cnn(C)c1` (stereo not shown) [Example 91, [3-Methoxy-4-(1-methyl-1H-pyrazol-4-yl)-phenyl]-(4-phenyl-4,5,6,7-tetrahydro-benzothiazol-2-yl)-amine], for which the EC50 was 240 nM.

With `COc1cc(Nc2nc3c(s2)CCCC3c2ccc(Cl)cc2Cl)ccc1-n1cnc(C)c1` (stereo not shown) [Example 25, [4-(2,4-Dichloro-phenyl)-4,5,6,7-tetrahydro-benzothiazol-2-yl]-[3-methoxy-4-(4-methyl-imidazol-1-yl)-phenyl]-amine], the EC50 was determined as 100 nM. The same measure, in the same setting: next, `Cc1cn(-c2ccc(Nc3nc4c(s3)CCCC4c3ccccc3)cc2)cn1` (stereo not shown) [Example 18, [4-(4-Methyl-imidazol-1-yl)-phenyl]-(4-phenyl-4,5,6,7-tetrahydro-benzothiazol-2-yl)-amine]: 130 nM. For `COc1cc(Nc2ncc3c(n2)C(c2ccccc2)CCC3)ccc1-n1cnc(C)c1` (stereo not shown) [Example 39, [3-Methoxy-4-(4-methyl-imidazol-1-yl)-phenyl]-(8-phenyl-5,6,7,8-tetrahydro-quinazolin-2-yl)-amine], the EC50 was found to be 480 nM. The same measure, in the same setting: next, `COc1cc(Nc2nc3c(s2)CCCC3c2ccc(C)c(F)c2)ccc1-n1cnc(C)c1` (stereo not shown) [Example 15]: 90 nM; `COc1cc(Nc2nc3c(s2)CCCC3c2cc(F)ccc2F)ccc1-n1cnc(C)c1` (stereo not shown) [Example 12, [4-(2,5-Difluoro-phenyl)-4,5,6,7-tetrahydro-benzothiazol-2-yl]-[3-methoxy-4-(4-methyl-imidazol-1-yl)-phenyl]-amine]: 160 nM. Same read-out and setting: next, `COc1ccccc1C1CCCc2sc(Nc3ccc(-n4cnc(C)c4)c(OC)c3)nc21` (stereo not shown) [Example 7, [3-Methoxy-4-(4-methyl-imidazol-1-yl)-phenyl]-[4-(2-methoxy-phenyl)-4,5,6,7-tetrahydro-benzothiazol-2-yl]-amine]: 110 nM.

Test system in the next data set: not given
Assay: not given
Settings: not given
For the molecule `Cc1cn(-c2ccc(Nc3ncc4c(n3)C(c3cccc(C(F)(F)F)c3)CCC4)cc2F)cn1` (stereo not shown) [Example 57, [3-Fluoro-4-(4-methyl-imidazol-1-yl)-phenyl]-[8-(3-trifluoromethyl-phenyl)-5,6,7,8-tetrahydro-quinazolin-2-yl]-amine], the melting point was 207 to 209 °C.

`Cc1cn(-c2ccc(Nc3nc4c(s3)CCCC4(C)c3ccccc3)cc2F)cn1` (stereo not shown) [Example 31, [3-Fluoro-4-(4-methyl-imidazol-1-yl)-phenyl]-(4-methyl-4-phenyl-4,5,6,7-tetrahydro-benzothiazol-2-yl)-amine] yielded a melting point of 160 to 164 °C.

Consider `CCOC(=O)C1CCc2cnc(Nc3ccc(-n4cnc(C)c4)c(OC)c3)nc21` (stereo not shown) [Example 63, Ethyl 2-[3-methoxy-4-(4-methyl-imidazol-1-yl)-phenylamino]-6,7-dihydro-5H-cyclopentapyrimidine-7-carboxylate], for which the melting point was 150 to 153 °C. Still for that read-out and setting: the result for `COc1cc(Nc2ncc3c(n2)C(c2ccccn2)CCC3)ccc1-n1cnc(C)c1` (stereo not shown) [Example 84, [3-Methoxy-4-(4-methyl-imidazol-1-yl)-phenyl]-(8-pyridin-2-yl-5,6,7,8-tetrahydro-quinazolin-2-yl)-amine] reads 181 to 183 °C; that for `COc1cc(Nc2ncc3c(n2)C(c2nc(C)no2)CCC3)ccc1-n1cnc(C)c1` (stereo not shown) [Example 64, [3-Methoxy-4-(4-methyl-imidazol-1-yl)-phenyl]-[8-(3-methyl-[1,2,4]oxadiazol-5-yl)-5,6,7,8-tetrahydro-quinazolin-2-yl]-amine], 212 to 214 °C. The same measure, in the same setting: the result for `Cc1cn(-c2ccc(Nc3nc4c(s3)CCCC4c3ccc(OC(F)(F)F)cc3)cc2F)cn1` (stereo not shown) [Example 34, [3-Fluoro-4-(4-methyl-imidazol-1-yl)-phenyl]-[4-(4-trifluoromethoxy-phenyl)-4,5,6,7-tetrahydro-benzothiazol-2-yl]-amine] reads 148 to 151 °C. On the same count and under the same terms, the result for `COc1cc(Nc2ncc3c(n2)C(C(=O)N(C)C)CCC3)ccc1-n1cnc(C)c1` (stereo not shown) [Example 86, 2-[3-Methoxy-4-(4-methyl-imidazol-1-yl)-phenylamino]-5,6,7,8-tetrahydro-quinazoline-8-carboxylic acid dimethylamide] reads 150 to 152 °C. In turn, `Cc1cn(-c2ccc(Nc3ncc4c(n3)C(c3cc(C(F)(F)F)cc(C(F)(F)F)c3)CCC4)cc2F)cn1` (stereo not shown) [Example 61, [8-(3,5-Bis-trifluoromethyl-phenyl)-5,6,7,8-tetrahydro-quinazolin-2-yl]-[3-fluoro-4-(4-methyl-imidazol-1-yl)-phenyl]-amine] had a melting point of 200 to 202 °C. The molecule `Cc1cn(-c2ccc(Nc3ncc4c(n3)C(C)(c3ccccc3)CCC4)cc2F)cn1` (stereo not shown) [Example 56, [3-Fluoro-4-(4-methyl-imidazol-1-yl)-phenyl]-(8-methyl-8-phenyl-5,6,7,8-tetrahydro-quinazolin-2-yl)-amine] yielded a melting point of 157 to 158 °C.

As to `COc1cc(Nc2ncc3c(n2)C(c2ccc(Cl)c(Cl)c2)CCC3)ccc1-n1cnc(C)c1` (stereo not shown) [Example 49, [8-(3,4-Dichloro-phenyl)-5,6,7,8-tetrahydro-quinazolin-2-yl]-[3-methoxy-4-(4-methyl-imidazol-1-yl)-phenyl]-amine], the melting point was in the range of 167 to 169 °C. Still for that read-out and setting: next, `CCCC1(c2cccc(OC)c2)CCCc2cnc(Nc3ccc(-n4cnc(C)c4)c(OC)c3)nc21` (stereo not shown) [Example 46, [3-Methoxy-4-(4-methyl-imidazol-1-yl)-phenyl]-[8-(3-methoxy-phenyl)-8-propyl-5,6,7,8-tetrahydro-quinazolin-2-yl]-amine]: 166 to 168 °C; `CCOC(=O)C1CCCc2cnc(Nc3ccc(-n4cnc(C)c4)c(F)c3)nc21` (stereo not shown) [Example 59, Ethyl 2-[3-fluoro-4-(4-methyl-imidazol-1-yl)-phenylamino]-5,6,7,8-tetrahydro-quinazoline-8-carboxylate]: 142 to 145 °C. The same measure, in the same setting: next, `COC(=O)C1CC2(Cc3cnc(Nc4ccc(-n5cnc(C)c5)c(OC)c4)nc31)OCCO2` (stereo not shown) [Example 55, Methyl 6,6-ethylendioxy-2-[3-methoxy-4-(4-methyl-imidazol-1-yl)-phenylamino]-5,6,7,8-tetrahydro-quinazoline-8-carboxylate]: 180 to 182 °C; `COc1cc(Nc2ncc3c(n2)C(C(=O)N2CCCC2)CCC3)ccc1-n1cnc(C)c1` (stereo not shown) [Example 87, {2-[3-Methoxy-4-(4-methyl-imidazol-1-yl)-phenylamino]-5,6,7,8-tetrahydro-quinazolin-8-yl}-pyrrolidin-1-yl-methanone]: 94 to 95 °C; `COc1cc(Nc2nc(O)c3c(n2)C(c2ccccc2)CN(C)C3)ccc1-n1cnc(C)c1` (stereo not shown) [Example 53, 2-[3-Methoxy-4-(4-methyl-imidazol-1-yl)-phenylamino]-6-methyl-8-phenyl-5,6,7,8-tetrahydro-pyrido[4,3-d]pyrimidin-4-ol]: 152 to 155 °C.

Molecule `COc1cc(Nc2ncc3c(n2)C(c2cc(Cl)ccc2Cl)CCCC3)ccc1-n1cnc(C)c1` (stereo not shown) [Example 62, [9-(2,5-Dichloro-phenyl)-6,7,8,9-tetrahydro-5H-cycloheptapyrimidin-2-yl]-[3-methoxy-4-(4-methyl-imidazol-1-yl)-phenyl]-amine] came in with a melting point of 218 to 220 °C. `CCOC(=O)C1CCCc2cnc(Nc3ccc(-n4cnc(C)c4)c(OC)c3)nc21` (stereo not shown) [Example 54, Ethyl 2-[3-methoxy-4-(4-methyl-imidazol-1-yl)-phenylamino]-5,6,7,8-tetrahydro-quinazoline-8-carboxylate] displayed a melting point of 162 to 164 °C. `COc1cc(Nc2ncc3c(n2)C(CC#N)(c2ccc(Cl)cc2)CCC3)ccc1-n1cnc(C)c1` (stereo not shown) [Example 52, {8-(4-Chloro-phenyl)-2-[3-methoxy-4-(4-methyl-imidazol-1-yl)-phenylamino]-5,6,7,8-tetrahydro-quinazolin-8-yl}-acetonitrile] gave a melting point of 156 to 158 °C. The molecule `COc1cc(Nc2nc3c(s2)CCCC3c2ccccc2)ccc1-c1nc(C)no1` (stereo not shown) [Example 89, [3-Methoxy-4-(3-methyl-[1,2,4]oxadiazol-5-yl)-phenyl]-(4-phenyl-4,5,6,7-tetrahydro-benzothiazol-2-yl)-amine] registered a melting point of 228 to 231 °C. `COc1cc(Nc2ncc3c(n2)C(c2ccc(F)cc2)CCC3)ccc1-n1cnc(C)c1` (stereo not shown) [Example 51, [8-(4-Fluoro-phenyl)-5,6,7,8-tetrahydro-quinazolin-2-yl]-[3-methoxy-4-(4-methyl-imidazol-1-yl)-phenyl]-amine] gave a melting point of 191 to 193 °C. On the same count and under the same terms, next, `COc1cc(Nc2ncc3c(n2)C(c2ccc(Cl)cc2Cl)CCC3)ccc1-n1cnc(C)c1` (stereo not shown) [Example 48, [8-(2,4-Dichloro-phenyl)-5,6,7,8-tetrahydro-quinazolin-2-yl]-[3-methoxy-4-(4-methyl-imidazol-1-yl)-phenyl]-amine]: 256 to 258 °C.
